The text below walks through data of patent US20070037820A1, “Substituted piperazines as metabotropic glutamate receptor antagonists” (AstraZeneca AB, priority 2005, published 2007).

The experiment concerns the target T1, human mGluR5d (Homo sapiens, UniProt P41594).
T1 construct: expressed in transfected cells; host or cells: GHEK (Human Embryonic Kidney cells expressing glutamate transporter) for the IP3 assay
The experiment can be described thus: Functional assessment of mGluR5 antagonism in cell lines expressing mGluR5d (FLIPR calcium mobilization / IP3 turnover; which assay gave the values is not stated). The conditions noted are these: cells expressing human mGluR5d; assay (FLIPR or IP3) not specified. The experiment is classed as cell-based. The text has this: The pharmacological properties of the compounds of the invention can be analyzed using standard assays for functional activity. Examples of glutamate receptor assays are well known in the art as described in for example Aramori et al., Neuron 8:757 (1992), Tanabe et al., Neuron 8:169 (1992), Miller et al., J. Neuroscience 15: 6103 (1995), Balazs, et al., J. Neurochemistry 69:151 (1997). The methodology described in these publications is incorporated herein by reference. Conveniently, the compounds of the invention can be studied by means of an assay that measures the mobilization of intracellular calcium, [Ca^2+]i in cells expressing mGluR5.
Intracellular calcium mobilization was measured by detecting changes in fluorescence of cells loaded with the fluorescent indicator fluo-3. Fluorescent signals were measured using the FLIPR system (Molecular Devices). […]
FLIPR experiments were done using a laser setting of 0.800 W and a 0.4 second CCD camera shutter speed. […] After each addition of the compound, the fluorescence signal was sampled 50 times at 1 second intervals followed by 3 samples at 5 second intervals. Responses were measured as the peak height of the response within the sample period. […]
We have validated a secondary functional assay for mGluR5d based on Inositol Phosphate (IP3) turnover. IP3 accumulation is measured as an index of receptor mediated phospholipase C turnover. […]
(Calcium assays in cells follow changes in intracellular calcium, usually with a dye or a luminescent sensor.)

T1 sequence (P41594 21-942 isoform P41594-3 limits assumed): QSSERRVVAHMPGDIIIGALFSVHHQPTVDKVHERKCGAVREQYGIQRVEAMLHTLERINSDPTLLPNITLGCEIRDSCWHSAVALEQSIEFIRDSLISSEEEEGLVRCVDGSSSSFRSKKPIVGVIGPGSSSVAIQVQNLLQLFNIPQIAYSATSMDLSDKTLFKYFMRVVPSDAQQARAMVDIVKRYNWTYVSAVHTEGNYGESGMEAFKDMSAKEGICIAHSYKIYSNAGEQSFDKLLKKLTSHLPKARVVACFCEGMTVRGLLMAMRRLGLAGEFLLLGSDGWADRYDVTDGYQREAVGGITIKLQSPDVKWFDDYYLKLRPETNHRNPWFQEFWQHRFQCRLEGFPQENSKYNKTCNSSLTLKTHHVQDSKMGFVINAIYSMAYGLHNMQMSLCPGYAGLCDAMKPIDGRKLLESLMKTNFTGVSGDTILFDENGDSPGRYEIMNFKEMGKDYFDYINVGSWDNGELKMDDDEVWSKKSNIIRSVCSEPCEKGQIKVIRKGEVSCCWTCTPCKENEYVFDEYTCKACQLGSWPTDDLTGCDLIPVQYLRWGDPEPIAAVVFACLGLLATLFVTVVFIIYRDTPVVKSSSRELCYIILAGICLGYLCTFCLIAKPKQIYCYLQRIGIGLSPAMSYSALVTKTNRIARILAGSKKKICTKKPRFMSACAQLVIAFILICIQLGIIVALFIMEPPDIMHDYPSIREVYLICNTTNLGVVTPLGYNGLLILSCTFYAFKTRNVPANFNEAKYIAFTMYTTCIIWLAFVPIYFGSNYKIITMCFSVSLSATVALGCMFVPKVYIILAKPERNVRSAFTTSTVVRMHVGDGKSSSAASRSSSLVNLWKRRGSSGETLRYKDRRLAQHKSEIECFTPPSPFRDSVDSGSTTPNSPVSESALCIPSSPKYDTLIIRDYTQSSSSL

As to `CC(c1noc(-c2cccc(Cl)c2)n1)N1CCN(c2nccnc2C#N)CC1` (centres unmarked) [Example 15.11, 3-(4-{1-[5-(3-chlorophenyl)-1,2,4-oxadiazol-3-yl]ethyl}piperazin-1-yl) pyrazine-2-carbonitrile], the IC50 worked out at 101 nM. With `N#Cc1ccc(N2CCN(Cc3cc(-c4cc(Cl)ccc4F)on3)CC2)nc1` [Example 16.1, 6-(4-{[5-(5-chloro-2-fluorophenyl)isoxazol-3-yl]methyl}piperazin-1-yl) nicotinonitrile], the IC50 worked out at 199 nM.

Usually IC50 stands for the concentration needed to halve the response being measured.
